Here are results for four compounds from paper PMC10824102, “Identification of small molecule inhibitors of G3BP-driven stress granule formation” (The Journal of Cell Biology, 2024).

Experiment [1] addresses T1, NTF2L domain of G3BP1 (Homo sapiens, UniProt Q13283).
T1 construct: made in house; host or cells: E. coli BL21 (DE3)
Description: SPR binding of compounds to sensor-immobilized G3BP1. The following applies: for Kd: equilibrium analysis, 1:1 binding model, 25°C, pH 7.4; for Kd of inactive enantiomer relative to active compound: SPR, same domain. As to the method:
Binding affinity for G3BP1 was measured by SPR assay using a Biacore 8K instrument (Cytiva) at 25°C at pH 7.4 (20 mM Tris, 300 mM NaCl, 0.05% Tween-20, 2% DMSO) using neutravidin sensor chips. The binding of solution phase molecules was measured to sensor-bound biotinylated, AVI-tagged versions of the NTF2L domain of G3BP1. G3BP1 was captured on the sensor surface at the beginning of each experiment at a level of ∼1,000 RU. A neutravidin-only surface was used as a reference. Binding affinity was measured by equilibrium analysis of double-reference subtracted data performed at seven different analyte concentrations. A 1:1 binding model was used to estimate affinity; the maximum binding response was typically about 90% of the theoretical maximum for a 1:1 interaction given the size of the protein and analytes. Binding at the end of a 90-s association phase was measured; data were only used where equilibrium binding was reached. No regeneration was performed between binding cycles as all tested molecules dissociated completely from the sensor at the end of each cycle. Estimation of binding affinity by kinetic analysis was not performed as kinetic constants were beyond the range that could be reliably measured by the instrumentation.
For orientation: Surface plasmon resonance follows binding to a sensor surface in real time, without labels.

In experiment [2] the test system is stress granule formation in U2OS cells. Description: 24 h pretreatment followed by arsenite, immunofluorescence. The following applies: then 500 μM NaAsO2 for 30 min. Type of experiment: cell-based.
Experiment [3] has as its system stress granule formation in WT cell line with endogenous G3BP1. Briefly: Stress granule formation in WT cell line with endogenous G3BP1 (immunofluorescence). Type of experiment: cell-based. Conditions: Figure S2H: 50 μM, 250 μM NaAsO2 for 30 min. As for the experimental part: U2OS cells or U2OS cells stably expressing G3BP1-GFP were seeded in four-well Lab-Tek II Chambered Coverglass (1055360; Thermo Fisher Scientific). For preincubation experiments, cells were treated with 50 μM G3I compound for 20 min or 24 h, followed by 250 μM NaAsO2 and 50 μM G3I compound for 30 min. For posttreatment, cells were treated with 250 μM NaAsO2 for 30 min, followed by treatment with 250 μM NaAsO2 and 50 μM G3I compound for 5 min. Cells were then washed twice with PBS and fixed with 4% PFA in PBS for 10 min. Cells were then washed three times with PBS (5 min between each wash), permeabilized with 0.5% Triton X-100 in PBS for 10 min, and washed twice with PBS. Next, cells were blocked for 1 h with 3% BSA in PBS at room temperature, followed by incubation with primary antibodies diluted in 3% BSA overnight at 4°C. Cells were then washed three times with PBS (5 min between each wash) and incubated with secondary antibodies and Hoechst diluted in 3% BSA at room temperature for 1 h. Cells were then washed three times with PBS (5 min between each wash) and imaged. Primary antibodies were as follows: G3BP1 (Cat# 611127, RRID:AB_398438; BD Biosciences) at 1:200; TDP-43 (Cat# 12892-1-AP, RRID:AB_2200505; Proteintech) at 1:50; eIF3η (Cat# sc-137214, RRID:AB_2277705; Santa Cruz Biotechnology) at 1:100 dilution; PABP (Cat# ab21060, RRID:AB_777008; Abcam) at 1:1,000 dilution; and FXR1 (Cat# ab51970, RRID:AB_880113; Abcam) at 1:100 dilution. Secondary antibodies were as follows: donkey anti-mouse Alexa Fluor 647 (Cat# A-31571, RRID:AB_162542; Thermo Fisher Scientific), donkey anti-rabbit Alexa Fluor 555 (Cat# A-31572 [also A31572], RRID:AB_162543; Thermo Fisher Scientific), and donkey anti-goat Alexa Fluor 555 (Cat# A-21432 [also A21432], RRID:AB_2535853; Thermo Fisher Scientific). Nuclei were stained with Hoechst 33342 (40046; Biotium) at 1:10,000 dilution. All imaging was acquired on a Yokogawa CSU W1 spinning disk attached to a Nikon Ti2 eclipse with a Photometrics Prime 95B camera using Nikon Elements software (versions 5.20.00 to 5.21.02). Imaging was performed through a Nikon Plan Apo 60× 1.40 NA oil objective with Immersol 518 F (refractive index 1.518; Zeiss), and Perfect Focus 2.0 (Nikon) was engaged for all captures.

The subject of experiment [4] is preformed stress granules in U2OS cells stably expressing G3BP1-GFP. Description: Post-addition: dissolution of heat stress-induced stress granules. Type of experiment: cell-based. Conditions: for immediate reduction in stress granule area (preformed granules): 50 μM added after 25 min of 43°C heat stress; for stress granule disassembly during recovery at 37°C: 50 μM, compared with cells treated with inactive enantiomers. As to the method:
For post-addition of compounds, U2OS cells stably expressing G3BP1-GFP were seeded into eight-well Lab-Tek chambered cover glass (Nunc) for sodium arsenite experiments or 35-mm glass-bottom dishes (MatTek) for heat shock experiments. Immediately prior to the experiment, media was replaced with FluoroBrite DMEM media (Gibco) in each well supplemented with 10% FBS and 4 mM L-glutamine; for sodium arsenite experiments, arsenite was added at a final concentration of 250 μM. Cells were then placed on a microscope on which 37°C temperature and 5% CO2 were maintained using a Bold Line Cage Incubator (Okolab) and an objective heater (Bioptechs), and 5–10 xy fields were stored. For sodium arsenite experiments, acquisition began immediately after finding all xy positions, 4 min after the addition of sodium arsenite. 30 min after arsenite was added, 250 μl FluoroBrite DMEM with 250 μM sodium arsenite and 0.1 mM (2×) G3I compound (vortexed for 5 s) was added to the sample. For heat shock experiments, each xy position was imaged every minute. At 2 min into the acquisition, the objective heater was ramped to 43°C. Following this, 250 μM (5×) G3I compound was prepared in FluoroBrite DMEM and vortexed for 15 s. This solution was kept on a 47°C heater near the microscope along with a pipette tip. At 27 min into the acquisition (25 min into heat shock), 250 μl of the prewarmed solution was added to the cells using the prewarmed tip. We note that the solution was heated to 47°C to compensate for the rapid heat loss when adding the solution. At 32 min into the acquisition (30 min heat shock), the heat was ramped down to 37°C. All imaging was acquired on a Yokogawa CSU W1 spinning disk attached to a Nikon Ti2 eclipse with a Photometrics Prime 95B camera using Nikon Elements software (v5.20.00 to v5.21.02). Imaging was performed through a Nikon Plan Apo 60× 1.40 NA oil objective with Immersol 518 F (refractive index 1.518; Zeiss), and Perfect Focus 2.0 (Nikon) was engaged for all captures.
Automated granule detection and measurement were performed using a combination of ilastik and CellProfiler software. Briefly, ND2 multipoint timelapse files were resaved as image sequences in Fiji with the Bio-Formats plugin so that individual frames of the movies could be treated as individual images for analysis. From there, pixel classification in ilastik was used to segment both stress granules and the total cellular area within the field using the G3BP1-GFP channel via machine learning. These segmentations, along with the original G3BP1-GFP image, were input into CellProfiler, where objects were defined using the masks from ilastik.

Structures are written as SMILES.

T1 sequence (Q13283 11-133 limits assumed): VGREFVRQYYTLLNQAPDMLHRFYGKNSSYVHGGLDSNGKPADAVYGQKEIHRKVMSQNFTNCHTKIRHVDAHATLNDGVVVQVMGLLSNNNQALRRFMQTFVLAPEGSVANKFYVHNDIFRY

As usually defined, the Kd is the free concentration of one partner at which half of the binding sites on the other are occupied at equilibrium, for simple one-to-one binding. Lower therefore signals tighter binding. As to `CC(NC(=O)C(NC(=O)C(NC(=O)CCC(C)(C)C)C(C)(C)O)C(C)c1ccccc1)C(=O)N1CCCC1c1ccccc1` (stereo not drawn) [G3Ib], the affinity in experiment [1], expressed as Kd, was 0.15 µM. Further, in experiment [2] (20 μM), the “stress granule formation after 24 h pretreatment” value is on record as “nearly completely inhibited”. Besides, the “stress granule formation after 24 h pretreatment” value in experiment [2] (50 μM) is “nearly completely inhibited”. Moreover, the “stress granule formation by endogenous G3BP signal” value in experiment [3] is on record as “effectively blocked stress granule formation”. For the same compound, in experiment [4], the “immediate reduction in stress granule area (preformed granules)” value is roughly 68% and the “stress granule disassembly during recovery at 37°C” value is reported as “completed disassembly faster”.
Consider `COCCC(NC(=O)C(C)NC(=O)C(NC(=O)C(NC(=O)C(F)CC(C)(C)C)C(C)(C)O)C(C)c1ccccc1)C(=O)N(C)Cc1ccccc1` (stereo not drawn) [G3Ia], for which binding in experiment [1] was put at a Kd of 0.54 µM. For the same compound, the “stress granule formation after 24 h pretreatment” value in experiment [2] (5 μM) was “no substantial impairment”; in experiment [2] (20 μM), “no substantial impairment”; in experiment [2] (50 μM), “inhibited stress granule formation”. Also, the “stress granule formation by endogenous G3BP signal” value in experiment [3] was “effectively blocked stress granule formation”. Further, the “immediate reduction in stress granule area (preformed granules)” value in experiment [4] is recorded as roughly 54%. In addition, the “stress granule disassembly during recovery at 37°C” value in experiment [4] was “completed disassembly faster”.
Consider `CC(NC(=O)C(NC(=O)C(NC(=O)CCC(C)(C)C)C(C)(C)O)C(C)c1ccccc1)C(=O)N1CCCC1c1ccccc1` (stereo not drawn) [G3Ib′], for which, in experiment [1], the “Kd of inactive enantiomer relative to active compound” value is listed as greater than 100 fold and the Kd is 44.5 µM. Also, the “stress granule formation after 24 h pretreatment” value in experiment [2] (indicated doses) is “no discernable effects”. Besides, the “stress granule formation by endogenous G3BP signal” value in experiment [3] is recorded as “not”.
For `COCCC(NC(=O)C(C)NC(=O)C(NC(=O)C(NC(=O)C(F)CC(C)(C)C)C(C)(C)O)C(C)c1ccccc1)C(=O)N(C)Cc1ccccc1` (stereo not drawn) [G3Ia′] the same measures were greater than 100 fold, 75.5 µM, “no discernable effects” and “not”.
